This assay concerns the target T1, prolyl endopeptidase (PE, rhPE) (Homo sapiens, UniProt P48147).
T1 construct: gene PREP; recombinant human PE expressed in E. coli from plasmid pTrcHis PE
T1 sequence (P48147 1-710): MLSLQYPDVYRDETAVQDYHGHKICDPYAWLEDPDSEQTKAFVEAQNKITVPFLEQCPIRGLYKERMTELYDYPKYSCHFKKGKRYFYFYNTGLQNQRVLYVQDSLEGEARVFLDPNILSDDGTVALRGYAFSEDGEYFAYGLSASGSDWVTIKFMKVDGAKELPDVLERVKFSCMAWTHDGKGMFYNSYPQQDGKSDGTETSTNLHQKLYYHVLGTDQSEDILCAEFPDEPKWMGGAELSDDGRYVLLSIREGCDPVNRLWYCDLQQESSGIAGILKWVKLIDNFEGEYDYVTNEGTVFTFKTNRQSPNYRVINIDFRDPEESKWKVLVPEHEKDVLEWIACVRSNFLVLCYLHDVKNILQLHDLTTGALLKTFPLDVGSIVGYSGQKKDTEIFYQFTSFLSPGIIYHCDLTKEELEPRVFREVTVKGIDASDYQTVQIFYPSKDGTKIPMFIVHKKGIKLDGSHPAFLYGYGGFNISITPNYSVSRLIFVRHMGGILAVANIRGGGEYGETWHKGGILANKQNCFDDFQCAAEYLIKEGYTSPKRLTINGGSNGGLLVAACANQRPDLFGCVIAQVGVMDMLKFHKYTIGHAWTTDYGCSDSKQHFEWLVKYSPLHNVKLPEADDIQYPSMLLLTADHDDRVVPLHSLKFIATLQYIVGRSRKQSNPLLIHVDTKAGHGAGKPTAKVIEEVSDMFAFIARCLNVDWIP
Nature of the assay: purified rhPE activity assay (Suc-Gly-Pro-AMC fluorescence / Suc-Gly-Pro-pNA UV-vis, Lineweaver-Burk); supported by CD and NMR competition with ZPP. The class given is biochemical.

Usually Ki stands for a dissociation constant, usually derived from enzyme kinetics or from competition with a known ligand. Low values mean a stronger hold on the target, high ones a looser hold on the target. For `CCCC(CCC)C(=O)O` [VPA, Valproic acid], the inhibition constant Ki is 1000 to 2000 µM.

(Values after paper PMC4023971, “Targeting Prolyl Endopeptidase with Valproic Acid as a Potential Modulator of Neutrophilic Inflammation” (PLoS ONE, 2014).)
